In US12454675B2, “Method of increasing protein yield in mammalian cells in serum-free culture medium” (AGENCY FOR SCIENCE, TECHNOLOGY AND RESEARCH, priority 2016, dated 2025):

Columns and labels:
CHO-K1 cells = test: Shake flask batch growth and biochemical profiles of CHO-K1 in maltose or glucose medium; type: cell-based, Chinese Hamster
Experimental: Viable cell density and culture viability were determined by Trypan blue dye exclusion method using Vi-Cell XR Cell Viability Analyzer (Beckman Coulter, Brea, CA) according to manufacturer's instructions. For biochemical and other cell culture parameter analyses, 1 ml of culture sample was centrifuged at 8000 g for 10 minutes to obtain clarified supernatant. Concentrations of ammonium, glutamine, glucose and lactate were analyzed by the BioProfile 100 Plus (Nova Biomedical, Waltham, MA). Osmolality was measured using a vapor pressure osmometer (Vapro 5520, Wescor, Logan, UT), according to manufacturer's instructions. Maltose concentration was quantified using Maltose Colorimetric/Fluorometric Assay Kit (Biovision, Milpitas, CA), according to manufacturer's instructions. […] Cells were cultivated in single-use Erlenmeyer flasks (Corning), with a cell seeding density of 0.3×10^6 cells/ml in duplicates. Cell culture samples were collected and analyzed daily throughout the duration of the growth profile experiment until culture viabilities fell below 50%. When necessary, culture supernatant samples were stored at -20° C. for further analysis. […]0)=μt Equation 1

[1] = system: SH87 (CHO-K1 cell line producing an anti-Her2 monoclonal antibody); test: SH87 shake flask batch cultures in PFCDM with glucose and maltose; type: cell-based, Chinese Hamster; conditions: 20 g/l maltose supplemented vs 14 g/l glucose and 10 g/l maltose supplemented cultures
Experimental: Viable cell density and culture viability were determined by Trypan blue dye exclusion method using Vi-Cell XR Cell Viability Analyzer (Beckman Coulter, Brea, CA) according to manufacturer's instructions. For biochemical and other cell culture parameter analyses, 1 ml of culture sample was centrifuged at 8000 g for 10 minutes to obtain clarified supernatant. Concentrations of ammonium, glutamine, glucose and lactate were analyzed by the BioProfile 100 Plus (Nova Biomedical, Waltham, MA). Osmolality was measured using a vapor pressure osmometer (Vapro 5520, Wescor, Logan, UT), according to manufacturer's instructions. Maltose concentration was quantified using Maltose Colorimetric/Fluorometric Assay Kit (Biovision, Milpitas, CA), according to manufacturer's instructions. […] Cells were cultivated in single-use Erlenmeyer flasks (Corning), with a cell seeding density of 0.3×10^6 cells/ml in duplicates. Cell culture samples were collected and analyzed daily throughout the duration of the growth profile experiment until culture viabilities fell below 50%. When necessary, culture supernatant samples were stored at -20° C. for further analysis.

[2] = Maltose and glucose profiles in cell-free conditioned media; type: physicochemical; conditions: cell-free conditioned media of Days 2, 4, 6, 8; 3 g/l maltose; 37° C., 3 days
Experimental: In (A) SH87 cell were routinely maintained in glucose-only PFCDM was sub-cultivated into PFCDM with 4 g/l glucose, or 4 g/l glucose+3 g/l maltose. On Days 2, 4, 6 and 8, cell-free conditioned medium (CM) were harvested from both cultures. Viable cell densities (lined marker) and culture viabilities (marker only) were also monitored. In (B) CM from the maltose supplemented culture were incubated for a further 3 days at 37° C. Samples were harvested daily from these CM, starting from the day of harvest, to determine glucose and maltose concentrations. In (C) CM harvested from the glucose culture were spiked with maltose to a final concentration of 3 g/l prior to further incubation at 37° C. Samples from these CM were harvested daily for a further three (3) days to determine glucose and maltose concentrations. The averages and standard deviations from two (2) replicate shake flasks were plotted.
To further validate that the maltose was indeed utilized by the cells and not hydrolyzed in the culture media, cell-free conditioned media (CM) from Days 2, 4, 6 and 8 were obtained from a 3 g/l maltose supplemented culture as well as a 4 g/l glucose culture. 3 g/l maltose was spiked into the CM from the glucose culture, and both sets of CM were monitored over 3 days for changes in glucose and maltose concentrations at 37° C. (FIG. 4). […]

SH87 cells = test: SH87 fed-batch bioreactor cultures in PFCDM; type: cell-based, Chinese Hamster
Experimental: For each culture condition to be tested, SH87 was scaled up in PFCDM and inoculated into duplicate two (2) liter glass bioreactors (Sartorius, Germany) at a viable cell density of 3×10^5 cells/ml. Culture temperature, pH, dissolved oxygen and stir rate were maintained at 37° C., 7.1, 50% and 120 rpm respectively. The culture set points for glucose and glutamine were 0.5 g/l and 0.5 mM respectively, and predictive feeding was used to maintain these concentration levels by the addition of a concentrated DMEM-based protein-free feed and a 150 g/l glucose solution. Cell culture samples were collected and analyzed daily throughout the duration of the growth profile experiment until culture viabilities fell below 50%. When necessary, culture supernatant samples were stored at −20° C. for further analysis.
Since fed-batch culture is a popular mode for the manufacturing of monoclonal antibodies, the use of maltose in fed-batch cultures was evaluated. […] As such, it was evaluated whether maltose can be used to supplement glucose in fed-batch cultures to drive the cells towards a slower but more efficient metabolism: Using a common glucose concentration setpoint of 0.5 g/l, SH87 in media supplemented with 4 g/l glucose and 20 g/l maltose was fed daily with 50% of its calculated glucose requirement, while cultures of the same cells in media containing 4 g/l glucose was fed daily with 100% of its calculated glucose requirement. Duplicate bioreactor cultures were performed for each condition and the growth, biochemical and IgG titer profiles of these cultures were plotted in FIG. 7.
Additionally, the present disclosure investigated whether maltose supplementation in the feed medium can have further effect on fed-batch cultures with maltose-supplemented base medium. Using a common glucose concentration setpoint of 0.5 g/l, SH87 in media supplemented with 4 g/l glucose and 20 g/l maltose was fed daily with 50% of its calculated glucose requirement, using a sugar feed consisting of only glucose, or of glucose and maltose in a 1:1 ratio.

[3] = CHO-K1 maltose culture, 3.6 g/l

OC[C@H]1O[C@H](O[C@H]2[C@H](O)[C@@H](O)[C@H](O)O[C@@H]2CO)[C@H](O)[C@@H](O)[C@@H]1O [maltose]
culture viabilities maintained over a longer period of time compared to glucose (CHO-K1 cells; CHO-K1, 3.6 g/l sugar): greater than 80%
day on which glutamine was completely utilized (CHO-K1 cells; CHO-K1, 3.6 g/l sugar): 5 days
final ammonium concentration (CHO-K1 cells; CHO-K1, 3.6 g/l sugar): 0.20 g/L
doubling time (CHO-K1 cells; CHO-K1, 3.6 g/l sugar, viable cell density data till Day 4): 53.7 h
maximum viable cell density (CHO-K1 cells; CHO-K1, HyQ PF-CHO, 3.6 g/l sugar, initial 0.3×10^6 cells/ml, maltose Day 7, glucose Day 6): 1.4×10^6 cells/ml
glucose in the culture medium (CHO-K1 cells; [3]): not detectable
lactate production (CHO-K1 cells; [3]): lack of lactate production
improvement in maximum IgG titer of batch culture [1]: 15%
maltose hydrolysis in conditioned culture media [2]: not occurring spontaneously
effect of additional maltose in the feed medium on cell growth, viability, glutamine, osmolality and IgG titer profiles (SH87 cells; base 4 g/l glucose + 20 g/l maltose, feed glucose and maltose 1:1 vs glucose only): no additional effect
improvement in maximum IgG titers vs glucose-only fed-batch cultures (SH87 cells; fed-batch bioreactor): 23%
improvement in specific IgG productivities vs glucose-only fed-batch cultures (SH87 cells; fed-batch bioreactor): 55%
